According to US11903397B2, “Hay preservative and methods for preservation of hay” (DANSTAR FERMENT AG, priority 2014, dated 2024):
Marks after values point to notes of the source that are not given here.

Experiments:
[1] = system: lactic acid producing bacteria (LAB); assay: Enumeration of lactic acid producing bacteria on hay (Example 1)
Experimental: (§1) Two trial bales were made to determine time to complete application of the additive on one bale, weight of the bale as well as a more accurate measure of moisture content of the baled material. Bale moisture was determined using a hay probe. […] The application rate of P. anomala was 10^11 CFU in 1 L per ton of hay. The enzyme having a chitinase activity was applied at a rate of 1.5 g (suspended in 1 L of water) per ton of hay, corresponding to about 6 U per ton of hay. […] The negative control was water, and was applied at a rate of 1 L per ton of hay. […] Five replicate bales were made for each treatment. Samples of the P. anomala were taken after each application to verify the viability and numbers of the organism. […]
(§2) Chemical and microbiological analyses were conducted on hay samples collected from six different sections of the field and on composite core samples obtained from four different locations on each bale on day 1, 90, and 180 of storage. […] Dry matter (DM), organic matter (OM) and crude protein (CP) were determined according to AOAC (1990) procedures, and neutral detergent fibre (NDF), acid detergent fibre (ADF), and acid detergent insoluble nitrogen (ADIN) as described by Van Soest et al., (1991. Methods for dietary fiber, neutral detergent and non-starch polysaccharides in relation to animal nutrition. J. Dairy Sci. 74: 3583-3597.).

[2] = In situ DM disappearance of hay in the rumen (Example 1); type: in vivo, Jersey cows; conditions: fitted equation, day 180 hay
Experimental: (§3) In situ rate and extent of DM and NDF disappearance of the day 180 hay samples were determined in three cows fitted with ruminal cannulas and fed a standard feedlot backgrounding diet consisting of 50% timothy hay plus 50% barley silage (DM basis). Subsamples of the day 180 core samples obtained from bales treated with the same preservative were composited and ground to pass through a 4 mm screen. Approximately 4 g of each composite sample was weighed into Dacron bags and incubated in triplicate in each cow for 0, 2, 6, 12, 24, 48, 72, 96, and 120 h. Bags were made of monofilament polyester mesh (53 μm pore size, 5 cm×20 cm, Ankom, Fairport, New York). Cows were given two weeks to adapt to their diets before starting incubations. Immediately after incubation, bags were rinsed under cold tap water until all the rumen contents on the outside of the bags had been removed. Bags were washed in a domestic washing machine in cold water for three minutes using the delicate washing cycle without detergent and spin cycle. The washing procedure was repeated once. […] The residues from triplicate bags of the same treatment incubated in the same cow were pooled and ground to pass through a 1 mm screen before being analyzed for NDF as per the method stated above. Percentage disappearance of DM and NDF were calculated from the proportion remaining in the bags after each incubation time. […]

[3] = In situ ruminal digestion parameters of alfalfa hay (Example 2); type: in vivo, cows; conditions: hay 180 days after baling
Experimental: Core samples were collected on day 180 and evaluated for nutritional quality using in situ and in vitro methods.
In situ experiments were conducted to assess the effect of hay preservatives on the rate and extent of digestion of hay samples collected 180 days after baling. Three cows fitted with ruminal cannulas and fed a standard feedlot backgrounding diet were used. Approximately 4 g of each composite sample from each bale (replicate) per treatment was weighed into Dacron bags and incubated in triplicate in each cow for 0, 2, 6, 12, 24, 48, 72, 96, and 120 h. Bags were retrieved after incubation and processed according to LRC SOP to determine in situ ruminal DM and NDF disappearance.

yeasts [4] = assay: Enumeration of yeasts on hay (Example 1)
Experimental: as §1, §2

[5] = In vitro digestibility and gas production of alfalfa hay in mixed rumen fluid (Example 2); design: species or system cows; conditions: 180 day hay
Experimental: In vitro experiment was also conducted to assess the effect of microbial inoculants on gas production and kinetics from 180 day hay samples. Two runs by mixed rumen fluid from three cows fitted with ruminal cannulas and fed a standard feedlot backgrounding diet were conducted. Approximately 0.5 g of each composite sample of 180d hay per treatment was weighed into vial and incubated in triplicate in each run and gas were measured for 3, 6, 9, 12, 24 and 48 h. Vials were retrieved after incubation and processed according to LRC SOP to determine in vitro ruminal DM disappearance, gas production, ammonia and VFA.

yeasts [6] = assay: Microbial counts on alfalfa hay: yeast (Example 2)
Excerpt: (§4) The application rate of the combination of P. anomala in combination with the enzyme having a chitinase activity was respectively 10^11 CFU and 1.5 g in 1 L of water per ton of hay. Accordingly, the application rate of the combination of P. pentosaceus in combination with the enzyme having a chitinase activity 10^11 CFU and 1.5 g in 1 L of water per ton of hay. […] The negative control was water, and was applied at a rate of 1 L per ton of hay. Five large round bales of about 800 kg were made in accordance with Example 1 for each treatment on the same day. Core samples from bales across all treatments were collected at day 0, 90 and 180 after baling to analyze their nutritional value, fermentation product and microbial changes.
(§5) Core samples collected on day 0 and 90, 180 after baling were subjected to microbiological and chemical analysis. Microbiological analysis was conducted to enumerate, isolate and characterize the microorganisms (total bacteria, yeasts and moulds) on appropriate plates through serial dilution.

[7] = In situ NDF disappearance of hay in the rumen (Example 1); type: in vivo, Jersey cows; conditions: fitted equation; day 180 hay
Experimental: as §3

[8] = Temperature stability of alfalfa hay bales (Example 2, FIG. 2, FIG. 3)
Excerpt: as §4
Temperature of individual bales was monitored by continuously measuring the interior temperature throughout the storage period with three (3) Dallas Thermochron iButtons (Embedded Data Systems, Lawrenceburg, KY) inserted in the interior of each bale immediately after harvest (illustrated in pictures). The temperature was recorded at 4 hours intervals for 10 weeks.

[9] = Quality evaluation of hay (color, odor, grade) after 180 days (Example 1); design: key to GRADE (overall evaluation by examiner): VP: very poor; P: poor; A: average; G: good; VG: very good
Excerpt: All bales were opened on day 180 and their quality assessed based on the Maryland Cooperative Extension Fact Sheet #644.
Temperature stability of the bales was monitored by continuously measuring the interior temperature of each bale with three Dallas Thermochron iButtons (Embedded Data Systems, Lawrenceburg, KY) that were inserted in the core holes the following morning after baling. The iButtons were configured to record temperatures every hour during the first 60 days of the storage period. […] Bales were opened and visually scored for extent of spoilage and mold at the end of the storage period (180 d) based on the Maryland Cooperative Extension Fact Sheet #644 ‘Evaluating Hay Quality’ (http://www.extension.umd.edu/publications/pdfs/fs644. pdf).

total bacteria = assay: Microbial counts on alfalfa hay: total bacteria (Example 2)
Excerpt: as §4, §5

moulds = assay: Microbial counts on alfalfa hay: mold (Example 2)
Excerpt: as §4, §5

molds = assay: Enumeration of molds on hay (Example 1)
Experimental: as §1, §2

[10] = system: total bacteria (non-fastidious bacteria growing on nutrient agar); assay: Enumeration of total bacteria on hay (Example 1)
Experimental: as §1, §2

[11] = hay 90 days after treatment at baling
[12] = hay 180 day post treatment at baling
[13] = day 0, unit printed only at total bacteria (log cfu/g DM)
[14] = mean of bales, stored for 180 days

Structure (SMILES): CCC(=O)O [BPA, Propionic Acid]
- LAB (bacteria growing on MRS presumed to be Lactobacilli) [1, 11]: 4.88^c cfu log10
- MRS [1, 12]: 6.28 cfu log10
- DM disappearance kinetics: c (fractional rate of disappearance of fraction b) [2]: 0.083^c h^−1
- DM disappearance kinetics: c (fractional rate of disappearance of fraction b) ([2]; listed as propionic acid): 0.083 h⁻¹
- a = the rapidly degradable fraction [3]: 23.64^c
- b = the slowly degradable fraction [3]: 51.69^a
- c = the rate at which b is degraded [3]: 0.04^c /h
- lag = lag time [3]: 1.70^c h
- YEAST (yeasts [4]; [11]): 5.38 cfu log10
- YEAST (yeasts [4]; [12]): 4.67^b cfu log10
- c = Fractional gas production rate fermentation rate [5]: 6.6^c mL h^−1
- lag = lag time [5]: 0.48^a h
- YEAST count (yeasts [6]; [13]): 5.49
- YEAST count (yeasts [6]; day 90): 6.22
- YEAST count (yeasts [6]; day 180): 4.89
- NDF disappearance kinetics: Lag [7]: 2.87^ab h
- NDF disappearance kinetics: c (fractional rate of disappearance of fraction b) [7]: 0.069 h⁻¹
- average interior bale temperature (in words) ([8]; 60 day period post baling, FIG. 2): highest mean temperature over time
- time spent above 40° C. (in words) ([8]; storage 2012, FIG. 3): longest time above 40 °C
- hay quality by visual and sensory assessment (in words) ([9]; bales opened on day 180): poorest quality
- COLOR score, Mean [9, 14]: 8.8 points
- ODOR score, Mean [9, 14]: 6.8 points
- OVERALL score, Mean [9, 14]: 15.6
- GRADE (overall evaluation by examiner) ([9]; single bales (Bale # 1-5), stored for 180 days): P and VP
- Total bacteria (total bacteria; day 0): 6.34 log cfu/g DM
- Total bacteria (total bacteria; day 90): 8.49^a log cfu/g DM
- Total bacteria (total bacteria; day 180): 8.25^a log cfu/g DM
- MOLD count (moulds; [13]): 4.66
- MOLD count (moulds; day 90): 5.91
- MOLD (molds; [11]): 4.77 cfu log10
- MOLD (molds; [12]): 6.24 cfu log10
- TB (non-fastidious bacteria growing on nutrient agar) [10, 11]: 6.10 cfu log10
- NA [10, 12]: 7.23 cfu log10
